Where a SMILES comes first, the peptide text is derived from it.
Experiments:
Chelating-FPLC analyses = assay type: physicochemical
From the text: Otherwise, tissue-uptake of the sialorphin peptide involves a complex molecular species, including a cation mineral element, as the peptide was only recovered in the presence of a strong divalent metal ion chelating agent (Rougeot, C. et al. (1997), American Journal of Physiology 273, […]-20). […] The zinc ion, an essential component of the NEP catalytic site, is a common target of synthetic potent NEP inhibitors described elsewhere.

NEP = target: T1, NEP (Rattus norvegicus, UniProt P07861); experiment: Substance P endoproteolysis by rat peripheral tissue membrane preparations; assay type: biochemical
T1 construct: peripheral tissue membrane preparations that are known to be enriched in NEP-peptidase; from tissue; host or cells: rat renal outer medulla/kidney, intestine mucosa, placenta, prostate, dental and bone tissues, submandibular gland (membrane preparations)
T1 sequence (P07861 2-750): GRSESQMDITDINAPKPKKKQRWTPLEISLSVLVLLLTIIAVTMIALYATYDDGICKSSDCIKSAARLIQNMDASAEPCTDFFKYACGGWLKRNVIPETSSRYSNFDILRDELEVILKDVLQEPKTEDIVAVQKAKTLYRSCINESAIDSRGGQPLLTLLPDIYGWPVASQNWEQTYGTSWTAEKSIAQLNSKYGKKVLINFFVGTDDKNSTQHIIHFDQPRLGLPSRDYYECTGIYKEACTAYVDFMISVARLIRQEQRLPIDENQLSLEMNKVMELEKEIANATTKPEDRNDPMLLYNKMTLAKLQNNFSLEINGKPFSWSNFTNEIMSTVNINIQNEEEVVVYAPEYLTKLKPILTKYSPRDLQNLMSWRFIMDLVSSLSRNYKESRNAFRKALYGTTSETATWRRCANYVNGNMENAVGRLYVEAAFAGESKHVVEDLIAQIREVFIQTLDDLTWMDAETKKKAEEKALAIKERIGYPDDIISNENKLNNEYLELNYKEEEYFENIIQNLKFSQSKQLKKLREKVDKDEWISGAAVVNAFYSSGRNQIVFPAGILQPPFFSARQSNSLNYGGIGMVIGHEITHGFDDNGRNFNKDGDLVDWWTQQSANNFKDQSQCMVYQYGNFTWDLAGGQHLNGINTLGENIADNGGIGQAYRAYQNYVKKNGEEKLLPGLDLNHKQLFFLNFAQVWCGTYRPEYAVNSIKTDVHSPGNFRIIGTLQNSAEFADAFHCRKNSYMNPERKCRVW
Procedure: FIG. 4-A: Endopeptidase activity of the tissue membrane preparations was determined using 25 nM [3H] substanceP, in the presence of 10 μM bestatin. The enzymatic specific activity expressed in pM/min/μg membrane protein is done in the absence and in the presence of 10 μM sialorphin or NEP inhibitors (10 μM phosphoramidon or 1 μM thiorphan).
FIG. 4-B: Concentration-dependent inhibition by sialorphin of [3H] substanceP catabolism by rat renal membrane preparations. Each point represents the percentage of […] intact [3H] substanceP recovered and calculated as percentage of velocity without inhibitor−velocity in presence of inhibitor/velocity without inhibitor, and (*) represents the mean±SD of four determinations. Sialorphin concentration is expressed in nM and plotted on a log scale in B right. The protein concentration of membrane enzyme were defined according to conditions of measurement of initial velocity.
The same approach was applied to peripheral tissue membrane preparations that are known to be enriched in NEP-peptidase and/or to be targets for sialorphin, in vivo, i.e., renal outer medulla, intestine mucosa, placenta, prostate, dental and bone tissues, as well as submandibular epithelium (Rougeot, C. et al, American Journal of Physiology, (1997) 273, R1309-20; Sales et al., (1991) Regulatory Peptides 33, 209-22) and reviewed by Kenny et al., (1987), Mammalian ectoenzymes 169-210. There is evidence that, almost all these tissues contain substance P released from peripheral parasympathetic and sensory nerve terminals acting near the site of release on target cells that contain the neurokinin receptors to modulate the particular tissue function (McCarson et al., (1999), Neuroscience 93, 361-70). Thus, it appeared that the neuropeptide could be regarded as a relevant biologically NEP substrate at the periphery. However, substance P is cleaved potently by NEP and ACE membrane-bound peptidases, and both enzymes are highly distributed in the renal epithelium (Skidgel et al., (1985), Progress in Clinical & Biological Research 192, 371-8).
The specificity of the peptidase assay was assessed by testing the inhibitory efficacy of selective peptidase inhibitors (at 1-10 μM final concentration to induce maximum inhibitory response) on the endoproteolysis of 3H substance P by the various tissue-membrane enzymes, and by analysing the selective formation of the NEP-related tritiated product of the reaction that was defined, as above using spinal tissue. In addition, under standard conditions of initial velocity measurement, bestatin (10 μM) was added in the incubation medium to prevent unselectively the membrane aminopeptidase activities.

Structure (SMILES): N=C(N)NCCC[C@H](NC(=O)[C@@H]1CCCN1C(=O)[C@H](CC(N)=O)NC(=O)[C@H](Cc1c[nH]cn1)NC(=O)[C@@H](N)CCC(N)=O)C(=O)O [sialorphin, Gln-His-Asn-Pro-Arg] (H-QHNPR-OH; N-terminus and C-terminus assumed)
- zinc-chelating property (Chelating-FPLC analyses): selective and strong zinc-chelating group
- inhibitory efficacy on ectopeptidase-sensitive substance P degradation (NEP; inner bone tissues, n=4): 75±10%
- inhibition at 10 µM (NEP; male rat kidney membranes, 25 nM [3H] substance P, 10 μM bestatin, 10 μM sialorphin, n=9, read-out: inhibition of renal membrane substance-P-hydrolytic activity (maximum inhibitory response)): 60 ± 5%
- protection of exogenous 3H substance P from catabolic process (NEP; membrane fractions of the rat intestine): 87±17%
- inhibition of substance-P-hydrolytic activity (NEP; rat SMG (submandibular gland) membranes): 79%
- reduction of 3H-substance P catabolic process (NEP; rat inner dental tissue membranes, inhibitors at 1-10 μM (sialorphin 10 μM)): 39±14%
- decrease of substance P degradation (NEP; rat placenta and prostate tissue membranes, 10 μM): 70±3%
- IC50 (NEP; rat renal membrane preparations, read-out: IC50 on 3H substance-P degradation by rat kidney): 500 to 1000 nM
